Measured values as given in patent US20060099676A1, “Mammalian genes involved in rapamycin resistance and tumorgenesis: rapr6 genes” (priority 2002, published 2006).

System: N2a cells
Experiment: MTT proliferation assay: rapamycin mediated cell growth inhibition of N2a cells
Assay type: cell-based, mouse
Details: FIG. 7
Description: In a preferred embodiment, an MTT proliferation assay (see, e.g., van de Loosdrechet, et al., 1994, J. Immunol. Methods 174: 311-320; Ohno et al., 1991, J. Immunol. Methods 145:199-203; Ferrari et al., 1990, J. Immunol. Methods 131: 165-172; Alley et al., 1988, Cancer Res. 48: 589-601; Carmichael et al., 1987, Cancer Res. 47:936-942; Gerlier et al., 1986, J. Immunol. Methods 65:55-63; Mosmann, 1983, J. Immunological Methods 65:55-63) is used to screen for a candidate agent in conjunction with rapamycin to inhibit the growth of rapamycin resistant cells. The cells are treated with chosen concentrations of the candidate agent and rapamycin for 4 to 72 hours. The cells are then incubated with a suitable amount of 3-(4,5-dimethylthiazol-2-yl)-2,5-diphenyitetrazoiium bromide (MTT) for 1-8 hours such that viable cells convert MTT into an intracellular deposit of insoluble formazan. After removing the excess MTT contained in the supernatant, a suitable MTT solvent, e.g., a DMSO solution, is added to dissolved the formazan. The concentration of […], which is proportional to the number of viable cells, is then measured by determining the optical density at 570 nm. A plurality of different concentrations of the candidate agent can be assayed to allow the determination of the concentrations of the candidate agent and rapamycin which causes 50% inhibition. […]

CO[C@H]1C[C@@H]2CC[C@@H](C)[C@@](O)(O2)C(=O)C(=O)N2CCCC[C@H]2C(=O)O[C@H]([C@H](C)C[C@@H]2CC[C@@H](O)[C@H](OC)C2)CC(=O)[C@H](C)/C=C(\C)[C@@H](O)[C@@H](OC)C(=O)[C@H](C)C[C@H](C)/C=C/C=C/C=C/1C [rapamycin, 9,10,12,13,14,21,22,23,24,25,26,27, 32,33,34,34a-hexadecahydro-9,27-dihydroxy-3-[2-(4-hydroxy-3-methoxycyclohexyl)-1-methylethyl]-10,21-dimethoxy-6,8,12,14,20,26-hexamethyl-23,27-epoxy-3H-pyrido[2,1-c][1,4]oxaazacyclohentricontine-1,5,11,28,29(4H,6H,31H)-pentone]
rapamycin concentration at which the growth of N2a cells is completely inhibited (N2a cell line): ≥ 1 µM | concentration at which N2a cells are sensitive to rapamycin mediated cell growth inhibition (mouse neuroblastoma N2a cells, MTT assay): 10 nM
